# In patent publication US20220306695A1, “COMPSTATIN ANALOGUES AND THEIR MEDICAL USES” (priority 2019, published 2022):
# Starred links: 1 amine or outer side, 2 acyl side, 3 side chain; linkers in the order of their positions; H or OH if unused. Positions of bridges follow the written chain, without caps; N, C: chain ends. Non-standard residues stand in square brackets, D forms with d. Residues, ends and D or L forms follow the SMILES beside them. Groups on a side chain read outwards from the residue. *: point of attachment. Trp(1-Me) = Cn1cc(C[C@H](N)C(=O)O)c2ccccc21; C18 diacid = O=C(O)CCCCCCCCCCCCCCCCC(=O)*; C16 diacid = O=C(O)CCCCCCCCCCCCCCC(=O)*; γGlu = O=C(O)[C@H](CCC(=O)[*:2])N[*:1]; AEEA = NCCOCCOCC(=O)O; Sar = CNCC(=O)O
# B1: Compound 4 (peptide)
# peptide: Ac-ICI[Trp(1-Me)]QDWGEHRCT-NH2
# modifications: disulfide 2-12
# SMILES: CC[C@H](C)[C@H](NC(C)=O)C(=O)N[C@H]1CSSC[C@@H](C(=O)N[C@H](C(N)=O)[C@@H](C)O)NC(=O)[C@H](CCCNC(=N)N)NC(=O)[C@H](Cc2c[nH]cn2)NC(=O)[C@H](CCC(=O)O)NC(=O)CNC(=O)[C@H](Cc2c[nH]c3ccccc23)NC(=O)[C@H](CC(=O)O)NC(=O)[C@H](CCC(N)=O)NC(=O)[C@H](Cc2cn(C)c3ccccc23)NC(=O)[C@H]([C@@H](C)CC)NC1=O
# B2: Compound 94 (peptide)
# peptide: Ac-ICIWQDWGEHRCTEGEK([AEEA-AEEA-γGlu-C16 diacid])-NH2
# modifications: disulfide 2-12
# SMILES: CC[C@H](C)[C@H](NC(C)=O)C(=O)N[C@H]1CSSC[C@@H](C(=O)N[C@H](C(=O)N[C@@H](CCC(=O)O)C(=O)NCC(=O)N[C@@H](CCC(=O)O)C(=O)N[C@@H](CCCCNC(=O)COCCOCCNC(=O)COCCOCCNC(=O)CC[C@H](NC(=O)CCCCCCCCCCCCCCC(=O)O)C(=O)O)C(N)=O)[C@@H](C)O)NC(=O)[C@H](CCCNC(=N)N)NC(=O)[C@H](Cc2c[nH]cn2)NC(=O)[C@H](CCC(=O)O)NC(=O)CNC(=O)[C@H](Cc2c[nH]c3ccccc23)NC(=O)[C@H](CC(=O)O)NC(=O)[C@H](CCC(N)=O)NC(=O)[C@H](Cc2c[nH]c3ccccc23)NC(=O)[C@H]([C@@H](C)CC)NC1=O
# B3: Compound 95 (peptide)
# peptide: ICIWQDWGEHRCTEGK
# modifications: N-acetyl; C-terminal amide; disulfide C2-C12; K16 side chain bears (15-carboxy-pentadecanoyl)-[(Piperazine-1-yl)-acetyl][Peg3][Peg3]
# B4: Compound 96 (peptide)
# peptide: Ac-ICIWQDWGEHRCTEGK([AEEA-AEEA-γGlu-C18 diacid])-NH2
# modifications: disulfide 2-12
# SMILES: CC[C@H](C)[C@H](NC(C)=O)C(=O)N[C@H]1CSSC[C@@H](C(=O)N[C@H](C(=O)N[C@@H](CCC(=O)O)C(=O)NCC(=O)N[C@@H](CCCCNC(=O)COCCOCCNC(=O)COCCOCCNC(=O)CC[C@H](NC(=O)CCCCCCCCCCCCCCCCC(=O)O)C(=O)O)C(N)=O)[C@@H](C)O)NC(=O)[C@H](CCCNC(=N)N)NC(=O)[C@H](Cc2c[nH]cn2)NC(=O)[C@H](CCC(=O)O)NC(=O)CNC(=O)[C@H](Cc2c[nH]c3ccccc23)NC(=O)[C@H](CC(=O)O)NC(=O)[C@H](CCC(N)=O)NC(=O)[C@H](Cc2c[nH]c3ccccc23)NC(=O)[C@H]([C@@H](C)CC)NC1=O
# B5: Compound 97 (peptide)
# peptide: Ac-ICIWQDWGEHRCTEGEK([AEEA-AEEA-γGlu-C18 diacid])-NH2
# modifications: disulfide 2-12
# SMILES: CC[C@H](C)[C@H](NC(C)=O)C(=O)N[C@H]1CSSC[C@@H](C(=O)N[C@H](C(=O)N[C@@H](CCC(=O)O)C(=O)NCC(=O)N[C@@H](CCC(=O)O)C(=O)N[C@@H](CCCCNC(=O)COCCOCCNC(=O)COCCOCCNC(=O)CC[C@H](NC(=O)CCCCCCCCCCCCCCCCC(=O)O)C(=O)O)C(N)=O)[C@@H](C)O)NC(=O)[C@H](CCCNC(=N)N)NC(=O)[C@H](Cc2c[nH]cn2)NC(=O)[C@H](CCC(=O)O)NC(=O)CNC(=O)[C@H](Cc2c[nH]c3ccccc23)NC(=O)[C@H](CC(=O)O)NC(=O)[C@H](CCC(N)=O)NC(=O)[C@H](Cc2c[nH]c3ccccc23)NC(=O)[C@H]([C@@H](C)CC)NC1=O
# Key:
# [1] = tested on: classical complement pathway; assay: In vitro haemolysis assay (inhibition of classical complement pathway); assay type: cell-based, human; conditions: Table 3; human serum, sensitized sheep red blood cells; read-out: IC50[nM], in vitro analysis of inhibition of hemolysis
# How it was run: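 Serially diluted compound (9 points) was preincubated 15 min at room temperature with diluted human serum, titrated per batch to give 70-90% maximal haemolysis, in Tris/casein buffer pH 7.4 with Mg2+/Ca2+. Antibody-sensitized sheep erythrocytes were then added for 30 min at 37° C, and the reaction was stopped with EDTA. Haemolysis was read at A405, with IC50 from 4PL fit.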
# [2] = Solubility test at 10 mg/mL (visual inspection and light scattering); assay type: physicochemical; conditions: for Solubility, Condition 1 Acetate pH 4: 10 mg/mL compound in 100 mM acetate pH 4; for Solubility, Condition 2 Acetate pH 5: 10 mg/mL compound in 100 mM acetate pH 5; for Solubility, Condition 3 Phosphate pH 6: 10 mg/mL compound in 100 mM phosphate pH 6; for Solubility, Condition 4 Phosphate pH 7: 10 mg/mL compound in 100 mM phosphate pH 7; for Solubility, Condition 5 Phosphate pH 7.5: 10 mg/mL compound in 100 mM phosphate pH 7.5
# Human C3 = Human C3 (human, UniProt P01024 23-1663); assay: cell-based or functional assay
# Chain of Human C3 (P01024 23-1663 limits assumed): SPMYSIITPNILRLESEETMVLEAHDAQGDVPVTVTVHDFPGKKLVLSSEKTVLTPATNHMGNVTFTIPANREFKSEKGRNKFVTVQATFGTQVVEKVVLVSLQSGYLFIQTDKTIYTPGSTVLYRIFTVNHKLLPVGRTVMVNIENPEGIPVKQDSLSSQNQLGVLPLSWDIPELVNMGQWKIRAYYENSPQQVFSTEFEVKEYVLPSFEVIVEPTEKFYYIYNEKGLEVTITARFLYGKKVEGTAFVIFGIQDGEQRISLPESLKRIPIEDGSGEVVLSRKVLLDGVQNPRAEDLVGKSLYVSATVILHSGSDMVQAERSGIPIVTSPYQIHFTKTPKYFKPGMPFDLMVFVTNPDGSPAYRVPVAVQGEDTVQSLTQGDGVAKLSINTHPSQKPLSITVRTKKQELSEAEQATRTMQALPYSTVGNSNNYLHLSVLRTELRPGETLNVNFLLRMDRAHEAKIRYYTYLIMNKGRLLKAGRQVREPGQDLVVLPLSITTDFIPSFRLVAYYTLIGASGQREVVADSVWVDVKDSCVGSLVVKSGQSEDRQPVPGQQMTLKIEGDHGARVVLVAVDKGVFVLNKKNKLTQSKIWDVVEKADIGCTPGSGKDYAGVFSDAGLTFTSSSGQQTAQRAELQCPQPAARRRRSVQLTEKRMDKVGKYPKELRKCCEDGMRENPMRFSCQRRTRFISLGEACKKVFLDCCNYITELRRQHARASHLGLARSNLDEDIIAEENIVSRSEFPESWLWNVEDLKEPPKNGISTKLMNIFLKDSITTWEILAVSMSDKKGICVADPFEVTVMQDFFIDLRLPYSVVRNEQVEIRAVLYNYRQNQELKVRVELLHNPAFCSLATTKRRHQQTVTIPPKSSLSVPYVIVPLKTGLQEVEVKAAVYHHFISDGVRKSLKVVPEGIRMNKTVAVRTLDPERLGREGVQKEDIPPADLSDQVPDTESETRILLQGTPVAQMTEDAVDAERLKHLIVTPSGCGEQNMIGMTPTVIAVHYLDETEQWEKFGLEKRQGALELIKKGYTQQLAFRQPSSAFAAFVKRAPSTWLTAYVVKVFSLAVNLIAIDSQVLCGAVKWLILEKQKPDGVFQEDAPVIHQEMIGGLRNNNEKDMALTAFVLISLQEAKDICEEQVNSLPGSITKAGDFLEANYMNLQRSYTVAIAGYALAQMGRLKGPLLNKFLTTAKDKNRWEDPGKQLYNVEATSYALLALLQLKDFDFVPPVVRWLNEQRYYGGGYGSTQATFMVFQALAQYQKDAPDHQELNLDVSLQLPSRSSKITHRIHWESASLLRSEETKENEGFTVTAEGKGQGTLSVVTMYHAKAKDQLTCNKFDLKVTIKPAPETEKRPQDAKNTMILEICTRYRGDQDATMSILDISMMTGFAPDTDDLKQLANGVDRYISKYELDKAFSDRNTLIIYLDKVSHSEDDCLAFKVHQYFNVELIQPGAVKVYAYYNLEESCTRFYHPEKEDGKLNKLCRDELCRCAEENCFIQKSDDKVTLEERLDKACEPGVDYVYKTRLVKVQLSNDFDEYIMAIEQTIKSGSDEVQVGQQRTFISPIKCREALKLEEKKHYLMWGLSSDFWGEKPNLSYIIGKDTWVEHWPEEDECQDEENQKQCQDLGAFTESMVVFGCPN
molecule,measurement,setting,value
CC[C@H](C)[C@@H]1NC(=O)[C@@H](NC(=O)[C@H](Cc2ccc(O)cc2)NC(=O)[C@H](CCC(=O)O)NC(=O)[C@H](CO)NC(C)=O)CSSC[C@@H](C(=O)N(C)CC(=O)N[C@@H](CCC(=O)O)C(=O)NCC(=O)N[C@@H](CCC(=O)O)C(=O)N[C@@H](CCCCNC(=O)CC[C@H](NC(=O)CNC(=O)CC[C@H](NC(=O)CCCCCCCCCCCCCCCCC(=O)O)C(=O)O)C(=O)O)C(N)=O)NC(=O)[C@H](CCCNC(=N)N)NC(=O)[C@H](Cc2c[nH]cn2)NC(=O)[C@H](CCC(=O)O)NC(=O)CNC(=O)[C@H](Cc2c[nH]c3ccccc23)NC(=O)[C@H](CC(=O)O)NC(=O)[C@H](CCC(N)=O)NC(=O)[C@H](Cc2cn(C)c3ccccc23)NC1=O [Compound 114] (Ac-SEYCI[Trp(1-Me)]QDWGEHRC[Sar]EGEK([γGlu-Gly-γGlu-C18 diacid])-NH2; disulfide 4-14),IC50,[1],< 500 nM
same,"Solubility, Condition 1 Acetate pH 4",[2],"+ (denotes solubility at the given condition, as determined by UV absorbance being less than 0.1 AU at 340 nm and the sample being clear when manually inspected.)"
same,"Solubility, Condition 2 Acetate pH 5",[2],"+ (denotes solubility at the given condition, as determined by UV absorbance being less than 0.1 AU at 340 nm and the sample being clear when manually inspected.)"
same,"Solubility, Condition 3 Phosphate pH 6",[2],"+ (denotes solubility at the given condition, as determined by UV absorbance being less than 0.1 AU at 340 nm and the sample being clear when manually inspected.)"
same,"Solubility, Condition 4 Phosphate pH 7",[2],"+ (denotes solubility at the given condition, as determined by UV absorbance being less than 0.1 AU at 340 nm and the sample being clear when manually inspected.)"
same,"Solubility, Condition 5 Phosphate pH 7.5",[2],"+ (denotes solubility at the given condition, as determined by UV absorbance being less than 0.1 AU at 340 nm and the sample being clear when manually inspected.)"
CC[C@H](C)[C@@H]1NC(=O)[C@@H](NC(=O)[C@H](Cc2ccc(O)cc2)NC(=O)[C@H](CCC(=O)O)NC(=O)[C@H](CO)NC(C)=O)CSSC[C@@H](C(=O)N(C)CC(=O)N[C@@H](CCC(=O)O)C(=O)NCC(=O)N[C@@H](CCCCN)C(=O)N[C@@H](CCCCNC(=O)CC[C@H](NC(=O)CNC(=O)CC[C@H](NC(=O)CCCCCCCCCCCCCCCCC(=O)O)C(=O)O)C(=O)O)C(N)=O)NC(=O)[C@H](CCCNC(=N)N)NC(=O)[C@H](Cc2c[nH]cn2)NC(=O)[C@H](CCC(=O)O)NC(=O)CNC(=O)[C@H](Cc2c[nH]c3ccccc23)NC(=O)[C@H](CC(=O)O)NC(=O)[C@H](CCC(N)=O)NC(=O)[C@H](Cc2cn(C)c3ccccc23)NC1=O [Compound 115] (Ac-SEYCI[Trp(1-Me)]QDWGEHRC[Sar]EGKK([γGlu-Gly-γGlu-C18 diacid])-NH2; disulfide 4-14),IC50,[1],< 250 nM
same,"Solubility, Condition 1 Acetate pH 4",[2],"− (denotes lack of solubility at the given condition, as UV absorbance at 340 nm exceeds 0.1 AU and/or it is visibly turbid or contains particles.)"
same,"Solubility, Condition 2 Acetate pH 5",[2],"− (denotes lack of solubility at the given condition, as UV absorbance at 340 nm exceeds 0.1 AU and/or it is visibly turbid or contains particles.)"
same,"Solubility, Condition 3 Phosphate pH 6",[2],"+ (denotes solubility at the given condition, as determined by UV absorbance being less than 0.1 AU at 340 nm and the sample being clear when manually inspected.)"
same,"Solubility, Condition 4 Phosphate pH 7",[2],"+ (denotes solubility at the given condition, as determined by UV absorbance being less than 0.1 AU at 340 nm and the sample being clear when manually inspected.)"
same,"Solubility, Condition 5 Phosphate pH 7.5",[2],"+ (denotes solubility at the given condition, as determined by UV absorbance being less than 0.1 AU at 340 nm and the sample being clear when manually inspected.)"
B1,"IC50[nM], inhibition of hemolysis",Human C3,< 100 nM
B2,"IC50[nM], inhibition of hemolysis",Human C3,< 500 nM
B3,"IC50[nM], inhibition of hemolysis",Human C3,< 500 nM
B4,"IC50[nM], inhibition of hemolysis",Human C3,< 1000 nM
B5,"IC50[nM], inhibition of hemolysis",Human C3,< 250 nM
